For experiment [1], the system named is neopterin formation by GTP-cyclohydrolase 1 (GTP-CH-I) in PBMC. Briefly: Neopterin formation in PBMC supernatants (ELISA) after 48 h treatment. The class given is cell-based, human. The note with it: PHA-stimulated PBMC; data not shown; insufficient repetitions for (1) and (3). How it is done: The study was performed in accordance with the Declaration of Helsinki. PBMC were isolated from healthy donors who gave written consent that their donated blood may be used for scientific purposes, in case when it was not selected for transfusion. The PBMC were isolated by density gradient centrifugation as described earlier. After isolation, the cells were washed three times with phosphate buffered saline containing 1 μM ethylenediaminetetraacetic acid and subsequently they were maintained in RPMI 1640 (Sigma Aldrich, Vienna, Austria) supplemented with 2 mM L-glutamine, 10% heat-inactivated fetal calf serum (Biochrom, Germany) and 50 μg/mL gentamicin (Lonza-BioWhittaker, USA), at 37°C in a humidified atmosphere containing 5% CO2.
The cells were seeded in 48-well plates (1.5 × 10^6 cells/mL/well) and treated either with increasing concentrations of the extract, the individual fractions or the pure compounds, dissolved in DMSO. The PBMC were either stimulated with 10 μg/mL of the mitogen lectin phytohaemagglutin (PHA) after 30 minutes of treatment, or were left unstimulated. In addition to PHA, the stimulatability of the PBMC was controlled for each experiment by treatment with the lectin concanavalin A (ConA) at a concentration of 10 μg/mL. After 48 h of incubation, cell culture supernatants were collected and stored at −20°C until analysis. In addition, 1-methyl-D-tryptophan (Sigma-Aldrich, Vienna, Austria) was used as a postive control for the suppression of IDO-1 acitivity.
Neopterin concentrations were measured by ELISA (BRAHMS, Germany), according to the manufacturers' instructions with the detection limit of 2 nmol/L.
The half maximal (50% inhibitory) concentration (IC50) was calculated by using the CalcuSyn software (Biosoft, UK) according the concept of Chou and Talalay. […] P-values below 0.05 were considered to indicate significance. Results are expressed as percent of unstimulated and PHA-stimulated control cells and are shown as mean ± standard error of the mean (SEM).

Experiment [2] deals with T1, indoleamine 2,3-dioxygenase-1 (IDO-1) (Homo sapiens, UniProt P14902).
T1 construct: PBMC were isolated from healthy donors who gave written consent that their donated blood may be used for scientific purposes; endogenous in cells; host or cells: primary human PBMC from healthy blood donors, stimulated with 10 μg/mL PHA
Briefly: Tryptophan breakdown to kynurenine (Kyn/Trp by HPLC) in PBMC supernatants after 48 h treatment. The class given is cell-based. How it is done: The study was performed in accordance with the Declaration of Helsinki. PBMC were isolated from healthy donors who gave written consent that their donated blood may be used for scientific purposes, in case when it was not selected for transfusion. The PBMC were isolated by density gradient centrifugation as described earlier.
The PBMC were either stimulated with 10 μg/mL of the mitogen lectin phytohaemagglutin (PHA) after 30 minutes of treatment, or were left unstimulated. In addition to PHA, the stimulatability of the PBMC was controlled for each experiment by treatment with the lectin concanavalin A (ConA) at a concentration of 10 μg/mL. After 48 h of incubation, cell culture supernatants were collected and stored at −20°C until analysis. In addition, 1-methyl-D-tryptophan (Sigma-Aldrich, Vienna, Austria) was used as a postive control for the suppression of IDO-1 acitivity.
Briefly, the HPLC analysis of tryptophan and kynurenine was performed on a ProStar Varian system (USA) using rp-18 columns (Merck, Germany) and acetate buffer as eluent (flow-rate: 0.9 mL/min) according to the protocol described earlier. 3-Nitro-L-tyrosine (Sigma Aldrich, Austria) was used as an internal standard. Kynurenine and tryptophan standards were purchased from Sigma-Aldrich (Austria). Kynurenine and 3-nitro-L-tyrosine were detected by UV-absorbance at 360 nm wavelength (Shimadzu SPD-6A UV detector, Austria), tryptophan was detected by its fluorescence with an excitation wavelength of 286 nm and an emission wavelength of 366 nm (ProStar 360 detector, Varian, USA). The Kyn/Trp was calculated, which is an estimate of IDO-1 activity and expressed in μmol Kyn / mmol Trp. The sensitivity of the measurements was 0.5 μmol/L kynurenine and 0.1 μmol/L tryptophan.
P-values below 0.05 were considered to indicate significance. Results are expressed as percent of unstimulated and PHA-stimulated control cells and are shown as mean ± standard error of the mean (SEM).

T1 sequence (P14902 whole entry): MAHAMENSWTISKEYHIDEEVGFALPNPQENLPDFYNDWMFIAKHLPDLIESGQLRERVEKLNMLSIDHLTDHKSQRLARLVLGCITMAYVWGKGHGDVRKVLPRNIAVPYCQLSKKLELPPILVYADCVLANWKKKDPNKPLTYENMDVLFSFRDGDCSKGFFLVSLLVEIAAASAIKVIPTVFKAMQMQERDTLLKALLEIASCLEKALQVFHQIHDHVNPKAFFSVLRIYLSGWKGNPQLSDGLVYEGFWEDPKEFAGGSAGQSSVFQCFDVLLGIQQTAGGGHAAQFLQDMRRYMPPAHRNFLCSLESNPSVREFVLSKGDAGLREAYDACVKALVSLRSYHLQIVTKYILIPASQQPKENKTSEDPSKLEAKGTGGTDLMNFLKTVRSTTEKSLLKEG

Take `COC1=C(C(C)C)C(=O)c2c(O)cc3c(c2C1=O)C=CC(=O)C3(C)C` [compound 3, agastaquinone]: in experiment [1], the “Inhibition of neopterin formation (in words)” value (“Inhibition” for short) was “no dose-dependent effect”. Besides, the IC50 in experiment [2] worked out at 46.3 µM. For the molecule `COC1=C(C(C)C)C(=O)c2c(O)cc3c(c2C1=O)C=CCC3(C)C` [compound 8, 3-deoxyagastaquinone], the “Inhibition” value in experiment [1] is recorded as “inhibition of neopterin formation”. In experiment [2], this molecule gave an IC50 of 79.5 µM. Consider `COc1c(O)c2c(c(O)c1C(C)C)C(=O)C[C@H]1C(C)(C)CCC[C@]21C` [compound 6, inuroyleanol], for which the “Inhibition” value in experiment [1] is on record as “no dose-dependent effect”. For `CC(=O)O[C@@H]1C[C@H]2C(C)(C)CCC[C@]2(C)C2=C1C(=O)C(C(C)C)=C(O)C2=O` [compound 2, 7-O-acetylhorminone], the “Inhibition” value in experiment [1] is recorded as “inhibition of neopterin formation”. The molecule also came in with an IC50 in experiment [2] of 71.7 µM. For the molecule `CC(C)C1=C(O)C(=O)C2=C(C1=O)[C@H](O)C[C@H]1C(C)(C)CCC[C@]21C` [compound 1, horminone], the “Inhibition” value in experiment [1] is listed as “inhibition of neopterin formation”. In experiment [2], this molecule gave an IC50 of 346 µM.

Take `C=C1[C@@H](C)CC[C@]2(C)c3c(O)c(OC)c(C(C)C)c(O)c3C(=O)C[C@@H]12` [compound 7, agastol]: the “Inhibition” value in experiment [1] is on record as “minor”. In experiment [2], this molecule came in with an IC50 of 165 µM.

These data come from paper PMC5821946, “Immunomodulatory Effects of Diterpene Quinone Derivatives from the Roots of Horminum pyrenaicum in Human PBMC” (Oxidative Medicine and Cellular Longevity, 2018).
